According to ChEMBL document CHEMBL1201862, “PubChem BioAssay data set” (2004):
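Method: 48-hour compound exposure of cells in 96-well plates, five concentrations, linear interpolation of endpoints. Here, GI50 denotes the concentration required for 50% inhibition of growth.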 Active and inactive are the calls of the source. Rule as the data show it: active = GI50 up to about 1.1 µM and inactive = higher.

What was measured:
Test in all cases: inhibition of tumour cell growth, NCI panel, 48 h
A498 = test system: A498
NCI-H23 = test system: NCI-H23
M14 = test system: M14
HCC 2998 = test system: HCC 2998
SK-OV-3 = test system: SK-OV-3
SNB-19 = test system: SNB-19
HOP-92 = test system: HOP-92
KM12 = test system: KM12
COLO 205 = test system: COLO 205
DU-145 = test system: DU-145
UO-31 = test system: UO-31
U-251 = test system: U-251
HOP-62 = test system: HOP-62
ACHN = test system: ACHN
MDA-MB-435 = test system: MDA-MB-435
MDA-MB-231 = test system: MDA-MB-231
NCI-H522 = test system: NCI-H522
RPMI-8226 = test system: RPMI-8226
PC-3 = test system: PC-3

Compound	GI50 (A498)	GI50 (NCI-H23)	GI50 (M14)	GI50 (HCC 2998)	GI50 (SK-OV-3)	GI50 (SNB-19)	GI50 (HOP-92)	GI50 (KM12)	GI50 (COLO 205)	GI50 (DU-145)	GI50 (UO-31)	GI50 (U-251)	GI50 (HOP-62)	GI50 (ACHN)	GI50 (MDA-MB-435)	GI50 (MDA-MB-231)	GI50 (NCI-H522)	GI50 (RPMI-8226)	GI50 (PC-3)
O=C1Nc2ccccc2/C1=N/NC(=S)N1CCCC1	2.95 µM (inactive)	3.01 µM (inactive)	1.56 µM (inactive)	0.586 µM (active)	5.12 µM (inactive)	1.15 µM (inactive)	8.38 µM (inactive)	2.4 µM (inactive)	1.44 µM (inactive)	17.1 µM (inactive)	0.632 µM (active)	0.867 µM (active)	1.19 µM (inactive)	0.64 µM (active)	3.64 µM (inactive)	6.58 µM (inactive)	2.12 µM (inactive)	0.743 µM (active)	0.507 µM (active)
C=C1C(=O)OC2/C=C(/C)C3(O)OC(C)(CC(OC(=O)C(C)C)C12)CC3OC(C)=O (configuration not stated)	3.96 µM (inactive)	3.34 µM (inactive)	6.92 µM (inactive)	4.53 µM (inactive)	7.59 µM (inactive)	15.3 µM (inactive)	13.3 µM (inactive)	16.2 µM (inactive)	3.84 µM (inactive)	8.26 µM (inactive)	6.17 µM (inactive)	8 µM (inactive)	30.4 µM (inactive)	2.3 µM (inactive)	3.96 µM (inactive)	12.5 µM (inactive)	1.91 µM (inactive)	4.43 µM (inactive)	13.7 µM (inactive)
OCCCN(CCc1ccc(Cl)c(Cl)c1)CCN1CCCC1	17.3 µM (inactive)	69.8 µM (inactive)	17.4 µM (inactive)	18 µM (inactive)	> 100 µM (inactive)	68.4 µM (inactive)	> 100 µM (inactive)	45.7 µM (inactive)	–	> 100 µM (inactive)	50.2 µM (inactive)	48.1 µM (inactive)	> 100 µM (inactive)	64.6 µM (inactive)	22.3 µM (inactive)	32.5 µM (inactive)	30.3 µM (inactive)	26.5 µM (inactive)	48.9 µM (inactive)
Cc1ccc(-c2cc(-c3cc(-c4ccc(C)cc4C)[nH]n3)[nH]n2)c(C)c1	16.6 µM (inactive)	19.8 µM (inactive)	15.8 µM (inactive)	13.2 µM (inactive)	15.2 µM (inactive)	18.5 µM (inactive)	18.9 µM (inactive)	17.7 µM (inactive)	12.7 µM (inactive)	16.3 µM (inactive)	23 µM (inactive)	13.5 µM (inactive)	13.9 µM (inactive)	11.5 µM (inactive)	14.7 µM (inactive)	16.2 µM (inactive)	13.9 µM (inactive)	2.66 µM (inactive)	15.1 µM (inactive)
CC1(COS(=O)(=O)OCC2(C)COS(=O)(=O)OC2)COS(=O)(=O)OC1	> 45.8 µM (inactive)	> 25.8 µM (inactive)	> 51.4 µM (inactive)	> 60.7 µM (inactive)	> 100 µM (inactive)	> 60.7 µM (inactive)	10.3 µM (inactive)	> 32.7 µM (inactive)	> 51.6 µM (inactive)	> 36.5 µM (inactive)	> 41.2 µM (inactive)	> 38.1 µM (inactive)	62.2 µM (inactive)	> 32.3 µM (inactive)	> 41.2 µM (inactive)	> 73.6 µM (inactive)	> 61.1 µM (inactive)	> 20.2 µM (inactive)	> 29.6 µM (inactive)
CC(C)=CCC[C@@H](C)C1=C(N)C(=O)C(C)=C(O)C1=O	29.9 µM (inactive)	42.7 µM (inactive)	38.7 µM (inactive)	> 75 µM (inactive)	71.1 µM (inactive)	60.7 µM (inactive)	57.4 µM (inactive)	32.7 µM (inactive)	29.2 µM (inactive)	> 75 µM (inactive)	36 µM (inactive)	31.8 µM (inactive)	55.1 µM (inactive)	18.8 µM (inactive)	44.8 µM (inactive)	67.5 µM (inactive)	25.8 µM (inactive)	39.8 µM (inactive)	54.3 µM (inactive)
OCCc1ccsc1-c1sc(-c2cc(CCO)c(-c3sc(-c4cc(CCO)c(-c5sccc5CCO)s4)cc3CCO)s2)cc1CCO	2 µM (inactive)	0.853 µM (active)	1.82 µM (inactive)	1.47 µM (inactive)	1.64 µM (inactive)	1.7 µM (inactive)	1.14 µM (inactive)	0.621 µM (active)	1.54 µM (inactive)	1.34 µM (inactive)	1.29 µM (inactive)	0.957 µM (active)	1.38 µM (inactive)	1.47 µM (inactive)	1.32 µM (inactive)	2.83 µM (inactive)	0.807 µM (active)	0.344 µM (active)	1.28 µM (inactive)
COc1ccc(N2C=Nn3c(nc4sc(C)c(C)c4c3=O)C2)cc1	29.4 µM (inactive)	> 100 µM (inactive)	> 100 µM (inactive)	> 100 µM (inactive)	> 100 µM (inactive)	> 100 µM (inactive)	> 100 µM (inactive)	> 100 µM (inactive)	> 100 µM (inactive)	> 100 µM (inactive)	> 100 µM (inactive)	> 100 µM (inactive)	28.6 µM (inactive)	> 100 µM (inactive)	> 100 µM (inactive)	> 100 µM (inactive)	> 100 µM (inactive)	> 100 µM (inactive)	> 100 µM (inactive)
Cc1ccc(S(=O)(=O)N2CCN(S(=O)(=O)c3ccc(C)cc3)CCN(S(=O)(=O)c3ccc(C)cc3)Cc3cc(C#N)c(C#N)cc3CN(S(=O)(=O)c3ccc(C)cc3)CC2)cc1	20.7 µM (inactive)	> 100 µM (inactive)	25.8 µM (inactive)	> 100 µM (inactive)	> 100 µM (inactive)	51.1 µM (inactive)	25.3 µM (inactive)	> 100 µM (inactive)	> 100 µM (inactive)	> 100 µM (inactive)	> 100 µM (inactive)	> 100 µM (inactive)	> 100 µM (inactive)	> 100 µM (inactive)	> 100 µM (inactive)	31 µM (inactive)	> 100 µM (inactive)	> 100 µM (inactive)	39.4 µM (inactive)
CC(C)C1OCC(CO)CO1 (configuration not stated)	> 100 µM (inactive)	> 100 µM (inactive)	> 100 µM (inactive)	> 100 µM (inactive)	> 100 µM (inactive)	> 100 µM (inactive)	> 100 µM (inactive)	> 100 µM (inactive)	> 100 µM (inactive)	> 100 µM (inactive)	> 100 µM (inactive)	> 100 µM (inactive)	> 100 µM (inactive)	> 100 µM (inactive)	> 100 µM (inactive)	> 100 µM (inactive)	> 100 µM (inactive)	> 100 µM (inactive)	> 100 µM (inactive)
O=[N+]([O-])c1cccc(-c2ncnc(-c3cccc([N+](=O)[O-])c3)n2)c1	23.9 µM (inactive)	58.5 µM (inactive)	> 100 µM (inactive)	> 100 µM (inactive)	27.1 µM (inactive)	–	19.5 µM (inactive)	> 100 µM (inactive)	> 100 µM (inactive)	> 100 µM (inactive)	> 100 µM (inactive)	23.5 µM (inactive)	17.8 µM (inactive)	–	> 100 µM (inactive)	34.9 µM (inactive)	38.5 µM (inactive)	> 100 µM (inactive)	> 100 µM (inactive)
COc1cc2c(c3c1c(=O)c1ccccc1n3C)C=CC1(CCCC1)O2	18 µM (inactive)	12.9 µM (inactive)	13.3 µM (inactive)	21.8 µM (inactive)	21.6 µM (inactive)	18.5 µM (inactive)	16.6 µM (inactive)	7.05 µM (inactive)	13.6 µM (inactive)	17.6 µM (inactive)	–	12.8 µM (inactive)	12.8 µM (inactive)	16.3 µM (inactive)	16.4 µM (inactive)	12.4 µM (inactive)	16.3 µM (inactive)	1.81 µM (inactive)	> 10 µM (inactive)
CC(C)=C1C(=O)C[C@]2(C)C[C@H]3/C(=C(/C)CCC12)CC[C@@]3(C)O (some centres not stated)	> 50 µM (inactive)	> 50 µM (inactive)	> 50 µM (inactive)	> 50 µM (inactive)	> 50 µM (inactive)	> 50 µM (inactive)	> 50 µM (inactive)	18.2 µM (inactive)	45 µM (inactive)	> 50 µM (inactive)	> 50 µM (inactive)	> 50 µM (inactive)	> 50 µM (inactive)	> 50 µM (inactive)	> 50 µM (inactive)	> 50 µM (inactive)	29 µM (inactive)	> 50 µM (inactive)	30.7 µM (inactive)
CCCCCCCCCCCCCCN [TETRADECYLAMINE]	> 100 µM (inactive)	> 100 µM (inactive)	–	> 100 µM (inactive)	> 100 µM (inactive)	–	> 100 µM (inactive)	> 100 µM (inactive)	> 100 µM (inactive)	> 100 µM (inactive)	–	> 100 µM (inactive)	> 100 µM (inactive)	> 100 µM (inactive)	> 100 µM (inactive)	> 100 µM (inactive)	> 100 µM (inactive)	> 100 µM (inactive)	> 100 µM (inactive)
CN(C)Cc1cc(/N=N/c2ccccc2)ccc1O	25.1 µM (inactive)	98.9 µM (inactive)	38.9 µM (inactive)	34.1 µM (inactive)	–	> 100 µM (inactive)	23.2 µM (inactive)	34.6 µM (inactive)	53 µM (inactive)	22.7 µM (inactive)	21.9 µM (inactive)	> 100 µM (inactive)	39.7 µM (inactive)	29 µM (inactive)	34.8 µM (inactive)	32.9 µM (inactive)	29.6 µM (inactive)	56 µM (inactive)	75.7 µM (inactive)
